Measurements as given in ChEMBL document CHEMBL3400106, “TR-FRET binding assay targeting unactivated form of Bruton's tyrosine kinase” (Bioorg Med Chem Lett, 2015).
pIC50, pKd: −log10 of the molar value. Activity calls are given as the source filed them. No cut-off for these calls is given here.

Key:
[1] = molecular target: T1, Tyrosine-protein kinase BTK (Homo sapiens, UniProt Q06187); assay: Inhibition of biotinylated and activated BTK (unknown origin) using FITC-labeled Srctide peptide substrate and ATP
[2] = molecular target: T1, Tyrosine-protein kinase BTK; assay: Inhibition of biotinylated and unactivated BTK (unknown origin) using FITC-labeled Srctide peptide substrate and ATP
[3] = molecular target: T1, Tyrosine-protein kinase BTK; assay: Binding affinity to biotinylated and unactivated BTK (unknown origin) incubated for 1 hr by TR-FRET assay
[4] = molecular target: T1, Tyrosine-protein kinase BTK; assay: Binding affinity to biotinylated and unactivated BTK (unknown origin) at 0.001 to 0.1 uM incubated for 1 hr by TR-FRET assay
[5] = molecular target: T1, Tyrosine-protein kinase BTK; assay: Binding affinity to biotinylated and activated BTK (unknown origin) at 0.001 to 0.1 uM incubated for 1 hr by TR-FRET assay
[6] = Chemical stability in solution; type: physicochemical
[7] = molecular target: T1, Tyrosine-protein kinase BTK; assay: Inhibition of unactivated BTK (unknown origin) using 30 uM probe 5-(4-(4-(6-(3-(4-tert-butylbenzamido)-2-methylphenyl)-4-methyl-3-oxo-3,4-dihydropyrazin-2-ylamino)benzoyl)piperazine-1-carbothioamido)-2-(6-hydroxy-3-oxo-3H-xanthen-9-yl)benzoic acid
[8] = molecular target: T1, Tyrosine-protein kinase BTK; assay: Inhibition of biotinylated and activated BTK (unknown origin) up to 100 uM using FITC-labeled Srctide peptide substrate and ATP

T1 sequence (Q06187 whole entry): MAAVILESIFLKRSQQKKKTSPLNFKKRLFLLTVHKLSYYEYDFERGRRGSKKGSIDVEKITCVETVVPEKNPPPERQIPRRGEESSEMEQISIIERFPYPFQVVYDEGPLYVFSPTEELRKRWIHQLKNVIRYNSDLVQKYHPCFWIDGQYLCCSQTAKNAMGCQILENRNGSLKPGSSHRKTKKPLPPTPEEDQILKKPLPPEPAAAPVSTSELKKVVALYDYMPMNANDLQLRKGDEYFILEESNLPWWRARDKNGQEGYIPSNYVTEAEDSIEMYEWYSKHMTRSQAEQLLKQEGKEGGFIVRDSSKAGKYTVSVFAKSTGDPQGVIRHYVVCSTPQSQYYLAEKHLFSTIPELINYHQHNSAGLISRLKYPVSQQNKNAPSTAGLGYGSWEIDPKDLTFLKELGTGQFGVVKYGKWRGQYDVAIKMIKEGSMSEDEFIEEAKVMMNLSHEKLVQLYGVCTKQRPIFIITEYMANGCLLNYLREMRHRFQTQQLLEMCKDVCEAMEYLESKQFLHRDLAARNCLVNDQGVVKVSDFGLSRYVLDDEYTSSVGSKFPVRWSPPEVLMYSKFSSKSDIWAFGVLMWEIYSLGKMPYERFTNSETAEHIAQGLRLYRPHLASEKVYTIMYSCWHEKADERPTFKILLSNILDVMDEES

Compound	pIC50 [1]	pIC50 [2]	pKd [3]	Activity [4]	Activity [5]	Stability [6]	inhibition [7] [%]	inhibition [8]
Cc1c(NC(=O)c2ccc(C(C)(C)C)cc2)cccc1-c1cn(C)c(=O)c(Nc2ccc(C(=O)NCCCCNC(=S)Nc3ccc(-c4c5ccc(=O)cc-5oc5cc(O)ccc45)c(C(=O)O)c3)cc2)n1	6.72	8.37	8.26	Active	inactive	Unstable		
Cc1c(NC(=O)c2ccc(C(C)(C)C)cc2)cccc1-c1cn(C)c(=O)c(Nc2ccc(C(=O)NCCNC(=S)Nc3ccc(-c4c5ccc(=O)cc-5oc5cc(O)ccc45)c(C(=O)O)c3)cc2)n1	6.54	8.25	8.21	Active	inactive	Unstable		
CC(=O)Nc1cccc(NC(=O)c2ccc(CN3CCN(C)CC3)cc2)c1		5.33					> 10	inactive
Cc1c(NC(=O)c2ccc(C(C)(C)C)cc2)cccc1-c1cn(C)c(=O)c(Nc2ccc(C(=O)NCCOCCOCCNC(=S)Nc3ccc(-c4c5ccc(=O)cc-5oc5cc(O)ccc45)c(C(=O)O)c3)cc2)n1	6.52	8.11	8.06	Active	inactive	Unstable		
Cc1c(NC(=O)c2ccc(C(C)(C)C)cc2)cccc1-c1cn(C)c(=O)c(Nc2ccc(C(=O)N3CCOC(CNC(=S)Nc4ccc(-c5c6ccc(=O)cc-6oc6cc(O)ccc56)c(C(=O)O)c4)C3)cc2)n1 (stereo unspecified)	6.46	8.32	8.42	Active	inactive			
Cc1c(NC(=O)c2ccc(C(C)(C)C)cc2)cccc1-c1cn(C)c(=O)c(Nc2ccc(C(=O)N3CCN(C(=S)Nc4ccc(-c5c6ccc(=O)cc-6oc6cc(O)ccc56)c(C(=O)O)c4)CC3)cc2)n1	7.16	9.21	8.60	Active	inactive			
Cc1c(NC(=O)c2ccc(C(C)(C)C)cc2)cccc1-c1cn(C)c(=O)c(Nc2ccc(C(=O)NCCCNC(=S)Nc3ccc(-c4c5ccc(=O)cc-5oc5cc(O)ccc45)c(C(=O)O)c3)cc2)n1	6.68	8.49	8.21	Active	inactive			
